Tested on: rat osteocalcin promoter
Assay: OCN (osteocalcin) promoter assay in RG-15 (ROS 17/2.8) cells
Type: cell-based
Details: Rattus norvegicus
Procedure: 4. The OCN Promoter test is described in the “Assay” section of the Description, infra.
3. The OCN (Osteocalcin) Promoter Assay
The OCN Promoter Assay is an indicator and marker for osteoporosis. Desired assay results are EC50 less than or equal to 325 nM. Preferred assay results are less than 50 nM.
(3) Materials and Method for The OCN Promoter Assay:
The activation of osteocalcin by VDR ligands was evaluated in a rat osteoblast-like cell line RG-15 (ROS 17/2.8) stably expressing rat osteocalcin promoter fused with luciferase reporter gene. The stable cell lines were established as reported before (Activation of Osteocalcin Transcription involves interaction of protein kinase A- and Protein kinase C-dependent pathways. Boguslawski, G., Hale, L. V., Yu, X.-P., Miles, R. R., Onyia, J. E., Santerre R. F., Chandrasekhar, S. J Biol. Chem. 275, 999-1006, 2000). Confluent RG-15 cells maintained in DMEM/F-12 medium (3:1) containing 5% FBS, 300 µg/ml G418 and at 37° C. under 5% CO2/95% air atmosphere were trypsinized (0.25% trypsin) and plated into white opaque 96-well cell culture plates (25000 cells/well). After 24 hr, cells (in DMEM/F-12 medium+2% FBS) were treated with various concentrations of compounds, dissolved in DMSO. The final DMSO concentration remained at 0.01% (v/v). After 48 hr treatment, the medium was removed, cells were lysed with 50 µl of lysis buffer (From Luciferase reporter assay system, Roche Diagnostics, Indianapolis, Ind.) and assayed for luciferase activity using the Luciferase Reporter Gene Assay kit from Boehringer Mannheim as per manufacturer's specifications.

Structure (SMILES)	EC50
CCC(CC)(c1ccc(OCC(=O)C(C)(C)C)c(C)c1)c1cc(C)c(S(=O)(=O)N[C@H](C)C(=O)O)s1 [Ex. 146]	27.7 nM
CCC(CC)(c1ccc(OCC(=S)C(C)(C)C)c(C)c1)c1cc(C)c(S(=O)(=O)N[C@H](C)C(=O)O)s1 [Ex. 147]	128 nM
CCC(CC)(c1ccc(OCC(O)C(C)(C)C)c(C)c1)c1cc(C)c(S(=O)(=O)NC(C)(C)C(=O)OC)s1 (stereo not drawn) [Ex. 148]	236 nM
CCC(CC)(c1ccc(OCC(O)C(C)(C)C)c(C)c1)c1cc(C)c(S(=O)(=O)Nc2ccccc2C(=O)O)s1 (stereo not drawn) [Ex. 149]	98.3 nM
CCC(CC)(c1ccc(OCC(O)C(C)(C)C)c(C)c1)c1cc(C)c(S(=O)(=O)N[C@H](C)C(=O)OC)s1 (stereo partly drawn) [Ex. 150]	55.2 nM
CCC(CC)(c1ccc(OCC(O)C(C)(C)C)c(C)c1)c1cc(C)c(S(=O)(=O)N[C@H](C)C(=O)O)s1 (stereo partly drawn) [Ex. 151]	48.2 nM
CCC(CC)(c1ccc(OCC(O)C(C)(C)C)c(C)c1)c1ccc(S(=O)(=O)NCC(=O)O)s1 (stereo not drawn) [Ex. 153]	187 nM
CCc1cc(C(CC)(CC)c2ccc(S(=O)(=O)NCC(=O)OC)s2)ccc1OCC(O)C(C)(C)C (stereo not drawn) [Ex. 154]	20.5 nM
CCCc1cc(C(CC)(CC)c2ccc(S(=O)(=O)NCC(=O)O)s2)ccc1OCC(O)C(C)(C)C (stereo not drawn) [Ex. 157]	7.65 nM
CCC(CC)(c1ccc(OCC(=O)C(C)(C)C)c(C)c1)c1cc(C)c(S(=O)(=O)/N=C/N(C)C)s1 [Ex. 161]	77 nM
CCC(=O)NS(=O)(=O)c1sc(C(CC)(CC)c2ccc(OCC(=O)C(C)(C)C)c(C)c2)cc1C [Ex. 163, 5-{1-[4-(3,3-dimethyl-2-oxo-butoxy)-3-methyl-phenyl]-1-ethyl-propyl}-3-methyl-thiophene-2-sulfonic acid propionyl-amide]	106 nM
CCC(CC)(c1ccc(OCC(=O)C(C)(C)C)c(C)c1)c1cc(C)c(S(=O)(=O)NC(=O)C(C)C)s1 [Ex. 164, 5-{1-[4-(3,3-Dimethyl-2-oxo-butoxy)-3-methyl-phenyl]-1-ethyl-propyl}-3-methyl-thiophene-2-sulfonic acid isobutyryl-amide]	150 nM
CCC(CC)(c1ccc(OCC(=O)C(C)(C)C)c(C)c1)c1cc(C)c(S(=O)(=O)NC(=O)C2CC2)s1 [Ex. 165, 5-{1-[4-(3,3-Dimethyl-2-oxo-butoxy)-3-methyl-phenyl]-1-ethyl-propyl}-3-methyl-thiophene-2-sulfonic acid cyclopropanecarbonyl-amide]	138 nM
CCC(CC)(c1ccc(OCC(=O)C(C)(C)C)c(C)c1)c1cc(C)c(S(=O)(=O)NC(=O)COC)s1 [Ex. 166, 5-{1-[4-(3,3-Dimethyl-2-oxo-butoxy)-3-methyl-phenyl]-1-ethyl-propyl}-3-methyl-thiophene-2-sulfonic acid (2-methoxy-acetyl)-amide]	151 nM
CCC(CC)(c1ccc(OCC(O)C(C)(C)C)c(C)c1)c1cc(C)c(-c2n[nH]c(=S)o2)s1 (stereo not drawn) [Ex. 172, 5-(5-{1-Ethyl-1-[4-(2-hydroxy-3,3-dimethyl-butoxy)-3-methyl-phenyl]-propyl}-3-methyl-thiophen-2-yl)-3H-[1,3,4]oxadiazole-2-thione]	17.2 nM
CCC(CC)(c1ccc(CCC(O)C(C)(C)C)c(C)c1)c1cc(C)c(C(=O)OC)s1 (stereo not drawn) [Ex. 174, 5-{1-Ethyl-1-[4-(3-hydroxy-4,4-dimethyl-pentyl)-3-methyl-phenyl]-propyl}-3-methyl-thiophene-2-carboxylic acid methyl ester]	172 nM
CCC(CC)(c1ccc(CCC(O)C(C)(C)C)c(C)c1)c1cc(C)c(C(=O)O)s1 (stereo not drawn) [Ex. 175, 5-{1-Ethyl-1-[4-(3-hydroxy-4,4-dimethyl-pentyl)-3-methyl-phenyl]-propyl}-3-methyl-thiophene-2-carboxylic acid]	127 nM
CCC(CC)(c1ccc(CCC(=O)C(C)(C)C)c(C)c1)c1cc(C)c(S(=O)(=O)NCC(=O)O)s1 [Ex. 182]	231 nM

Reference: patent publication US7601850B2, “Phenyl-thiophene type vitamin D receptor modulators” (Eli Lilly and Company, priority 2002, dated 2009)
